Test results reported in publication PMC11079024, “Identification of a family of species-selective complex I inhibitors as potential anthelmintics” (Nature Communications, 2024).
Several values for one entry are separate records, joined by “and”; a condition that tells them apart may be missing. Identical values can stand only once. Like-named read-outs stand apart in the source and are kept apart here.

How the values were obtained:
adult H. polygyrus = experiment: microbe, parasite or virus in culture; format: cell-based, Heligmosomoides polygyrus; conditions: anaerobic, 24 hours after treatment; for killing at 10 µM: Heligmosomoides polygyrus, 24 h, adult H. polygyrus, affected = score equal to or lower than 1.5, read-out: Percent Worms Affected; for # of Worms Affected: worms with score equal to or lower than 1.5
Procedure: To investigate the impact of the eleven benzimidazole derivatives under anaerobic conditions, an anaerobic chamber with an integrated incubator (Coy Laboratory Products, USA) was used. The same procedure was followed as described for the aerobic drug screening in adult H. polygyrus, but the incubation took place within the anaerobic chamber (37 °C, 85% N2, 10% CO2, 5% H2). Benzimidazole derivatives were tested at a concentration of 10 µM. For scoring, the plates had to be removed from the anaerobic chamber. The whole experiment was performed two times i.e., two independent biological replicates.
The activities of eleven benzimidazole derivatives were tested against adult H. polygyrus viability in vitro under aerobic (+, white boxplots) and anaerobic (–, coloured boxplots) conditions (see Methods). After 24-hour chemical treatment, worm viability was manually scored by an examiner using a scale from 0 (dead) to 3 (motile); DMSO was used as a negative control in both aerobic and anaerobic conditions; levamisole was used as a positive control in anaerobic conditions. The percentage of affected worms (i.e., worms with a score equal to or lower than 1.5) in each biological replicate is shown; data are from two biological replicates. Within each boxplot, black horizontal lines denote group medians, boxes span from the 25th to the 75th percentile of each group’s distribution, and whiskers extend to the maximum and minimum values. […]

[1] = biological target: M. musculus (heart) complex I (Mus musculus, UniProt P03888+Q91WD5+Q9DC70); experiment: biochemical; format: biochemical; design: Complex I activity, dose-response data: unit not given here; conditions: for IC50: heart mitochondria
M. musculus (heart) complex I, sequence (Q91WD5 34-463): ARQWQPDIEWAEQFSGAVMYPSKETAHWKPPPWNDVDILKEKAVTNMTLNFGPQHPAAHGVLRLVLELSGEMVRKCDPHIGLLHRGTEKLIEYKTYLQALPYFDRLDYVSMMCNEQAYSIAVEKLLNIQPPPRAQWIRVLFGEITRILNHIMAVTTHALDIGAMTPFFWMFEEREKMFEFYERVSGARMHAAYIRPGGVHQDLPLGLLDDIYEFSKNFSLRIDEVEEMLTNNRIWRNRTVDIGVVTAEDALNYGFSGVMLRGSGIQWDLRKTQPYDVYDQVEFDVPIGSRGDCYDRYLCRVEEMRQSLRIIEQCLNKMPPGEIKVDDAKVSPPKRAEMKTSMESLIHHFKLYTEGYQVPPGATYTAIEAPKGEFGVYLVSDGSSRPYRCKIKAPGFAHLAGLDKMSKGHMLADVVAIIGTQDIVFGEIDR
M. musculus (heart) complex I, sequence (Q9DC70 36-224): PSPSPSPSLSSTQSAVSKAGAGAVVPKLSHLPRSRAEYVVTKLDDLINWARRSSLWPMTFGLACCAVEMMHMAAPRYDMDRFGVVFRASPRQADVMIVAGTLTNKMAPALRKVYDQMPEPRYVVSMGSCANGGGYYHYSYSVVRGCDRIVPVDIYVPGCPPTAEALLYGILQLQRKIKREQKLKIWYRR
M. musculus (heart) complex I, sequence (P03888 whole entry): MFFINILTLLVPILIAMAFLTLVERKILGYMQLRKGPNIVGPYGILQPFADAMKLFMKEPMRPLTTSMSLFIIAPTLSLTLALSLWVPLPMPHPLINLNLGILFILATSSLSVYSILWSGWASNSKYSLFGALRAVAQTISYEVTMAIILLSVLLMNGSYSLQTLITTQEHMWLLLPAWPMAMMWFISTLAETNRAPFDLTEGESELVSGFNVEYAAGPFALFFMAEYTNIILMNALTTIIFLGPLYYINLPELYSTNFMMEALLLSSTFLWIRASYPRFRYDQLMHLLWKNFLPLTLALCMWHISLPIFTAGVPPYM
Outline: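 Complex I activity followed as DCIP reduction (600 nm, 30 s reads, 15 min) with 80 μM NADH and 60 μM decylubiquinone in 25 mM KPi pH 7.5 containing 2 μM antimycin A and 2 mM KCN. Freeze-thawed mouse or bovine heart mitochondria at 0.2 mg/mL; initial-rate percent of solvent control, single-point 100 μM or dose-response.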

For `Cc1nc2ccccc2n1Cc1ccc(Cl)cc1` [STK697993], the killing at 10 µM (adult H. polygyrus; replicate 1) was 100%, the killing at 10 µM (adult H. polygyrus; replicate 2) was 33% and the “# of Worms Affected” value (adult H. polygyrus; replicate 1) was 7. The “# of Worms Affected” value (adult H. polygyrus; replicate 2) was 2.

In the case of `Clc1ccc(SCCCCn2cnc3ccccc32)cc1` [Compound 7925515], the killing at 10 µM (adult H. polygyrus; replicate 1) is reported as 100%, the killing at 10 µM (adult H. polygyrus; replicate 2) is reported as 83% and the “# of Worms Affected” value (adult H. polygyrus; replicate 1) is reported as 5. The “# of Worms Affected” value (adult H. polygyrus; replicate 2) was 5.

In the case of `Clc1ccccc1OCCCCn1cnc2ccccc21` [Compound 7925804], the killing at 10 µM (adult H. polygyrus; replicate 1) is reported as 50%, the “# of Worms Affected” value (adult H. polygyrus; replicate 1) is reported as 3 and the “# of Worms Affected” value (adult H. polygyrus; replicate 2) is reported as 6. The “Worm viability score, individual worms (Worm1-Worm20)” value (adult H. polygyrus; replicate 2, scale from 0 (dead) to 3 (motile)) was 2 (3×) and 1.5 (2×) and 1.

`Clc1ccc(Cn2cnc3ccccc32)c(Cl)c1` [Compound 6750659] was tested, and the killing at 10 µM (adult H. polygyrus; replicate 1) was 50%, the killing at 10 µM (adult H. polygyrus; replicate 2) was 67% and the “# of Worms Affected” value (adult H. polygyrus; replicate 1) was 3. The “# of Worms Affected” value (adult H. polygyrus; replicate 2) was 4.

For `Cc1nc2ccccc2n1Cc1ccccc1Cl` [Compound 6707368], the killing at 10 µM (adult H. polygyrus; replicate 1) was 100%, the killing at 10 µM (adult H. polygyrus; replicate 2) was 33% and the “# of Worms Affected” value (adult H. polygyrus; replicate 1) was 6. The “# of Worms Affected” value (adult H. polygyrus; replicate 2) was 2.

In the case of `CCn1c(C(C)c2ccc(CC(C)C)cc2)nc2ccccc21` (stereo not drawn) [STK951902], the killing at 10 µM (adult H. polygyrus; replicate 1) is reported as 100%, the killing at 10 µM (adult H. polygyrus; replicate 2) is reported as 67% and the “# of Worms Affected” value (adult H. polygyrus; replicate 1) is reported as 6. For the same compound, the “# of Worms Affected” value (adult H. polygyrus; replicate 2) was 4.

For `Cc1nc2ccccc2n1Cc1ccc(Br)cc1` [Compound 5567167], the killing at 10 µM (adult H. polygyrus; replicate 1) was 50%, the killing at 10 µM (adult H. polygyrus; replicate 2) was 67% and the “# of Worms Affected” value (adult H. polygyrus; replicate 1) was 3. The “# of Worms Affected” value (adult H. polygyrus; replicate 2) was 4.

In the case of `CC(C)(C)c1ccc(CCOc2ncnc3ccccc23)cc1` [Fenazaquin, reference compound], the IC50 [1] is reported as 0.021 µM.

With `Cc1ccccc1OCCCCn1cnc2ccccc21` [Compound 7732524] the killing at 10 µM (adult H. polygyrus; replicate 1) was 60%, the killing at 10 µM (adult H. polygyrus; replicate 2) was 0% and the “# of Worms Affected” value (adult H. polygyrus; replicate 1) was 3. For the same compound, the “# of Worms Affected” value (adult H. polygyrus; replicate 2) was 0.

With `COc1cc2c(cc1OC)C(c1ccc(-c3ccc(Cl)c(Cl)c3)o1)=NCC2` [NPD3577] the activity at 0.0001 µM ([1]; M. musculus, dose 0.0001 µM, Mean of replicates, read-out: Complex I activity, dose-response data) was 99.3%, the “Complex I activity, dose-response data” value ([1]; M. musculus, dose 0.0001 µM, individual replicates (Rep)) was 99.760 and 97.530 and 100.984 and the activity at 0.0001 µM ([1]; M. musculus, dose 0.0001 µM, individual replicates (Rep), read-out: Complex I activity, dose-response data) was 98.7%. The activity at 0.0005 µM ([1]; M. musculus, dose 0.0005 µM, Mean of replicates, read-out: Complex I activity, dose-response data) was 99.8%, the “Complex I activity, dose-response data” value ([1]; M. musculus, dose 0.0005 µM, individual replicates (Rep)) was 100.720 and 95.586 and 99.617 and the activity at 0.0005 µM ([1]; M. musculus, dose 0.0005 µM, individual replicates (Rep), read-out: Complex I activity, dose-response data) was 103%. For the same compound, the activity at 0.001 µM ([1]; M. musculus, dose 0.001 µM, Mean of replicates, read-out: Complex I activity, dose-response data) was 103%, the “Complex I activity, dose-response data” value ([1]; M. musculus, dose 0.001 µM, individual replicates (Rep)) was 108.824 and 94.850 and 104.918 and the activity at 0.001 µM ([1]; M. musculus, dose 0.001 µM, individual replicates (Rep), read-out: Complex I activity, dose-response data) was 104%. For the same compound, the activity at 0.0025 µM ([1]; M. musculus, dose 0.0025 µM, Mean of replicates, read-out: Complex I activity, dose-response data) was 107%, the “Complex I activity, dose-response data” value ([1]; M. musculus, dose 0.0025 µM, individual replicates (Rep)) was 111.585 and 102.733 and 109.563 and the activity at 0.0025 µM ([1]; M. musculus, dose 0.0025 µM, individual replicates (Rep), read-out: Complex I activity, dose-response data) was 103%. The activity at 0.005 µM ([1]; M. musculus, dose 0.005 µM, Mean of replicates, read-out: Complex I activity, dose-response data) was 107%, the “Complex I activity, dose-response data” value ([1]; M. musculus, dose 0.005 µM, individual replicates (Rep)) was 112.125 and 100.788 and 103.716 and the activity at 0.005 µM ([1]; M. musculus, dose 0.005 µM, individual replicates (Rep), read-out: Complex I activity, dose-response data) was 109%. The activity at 0.013 µM ([1]; M. musculus, dose 0.013 µM, Mean of replicates, read-out: Complex I activity, dose-response data) was 104%, the “Complex I activity, dose-response data” value ([1]; M. musculus, dose 0.013 µM, individual replicates (Rep)) was 108.043 and 100.788 and 100.055 and the activity at 0.013 µM ([1]; M. musculus, dose 0.013 µM, individual replicates (Rep), read-out: Complex I activity, dose-response data) was 107%. For the same compound, the activity at 0.025 µM ([1]; M. musculus, dose 0.025 µM, Mean of replicates, read-out: Complex I activity, dose-response data) was 107%, the “Complex I activity, dose-response data” value ([1]; M. musculus, dose 0.025 µM, individual replicates (Rep)) was 126.379 and 112.185 and 93.904 and 97.158 and the activity at 0.063 µM ([1]; M. musculus, dose 0.063 µM, Mean of replicates, read-out: Complex I activity, dose-response data) was 100%. For the same compound, the “Complex I activity, dose-response data” value ([1]; M. musculus, dose 0.063 µM, individual replicates (Rep)) was 110.072 and 110.684 and 90.068 and 89.235, the activity at 0.125 µM ([1]; M. musculus, dose 0.125 µM, Mean of replicates, read-out: Complex I activity, dose-response data) was 96.8% and the “Complex I activity, dose-response data” value ([1]; M. musculus, dose 0.125 µM, individual replicates (Rep)) was 107.614 and 105.282 and 84.971 and 89.399. For the same compound, the activity at 0.313 µM ([1]; M. musculus, dose 0.313 µM, Mean of replicates, read-out: Complex I activity, dose-response data) was 197%, the “Complex I activity, dose-response data” value ([1]; M. musculus, dose 0.313 µM, individual replicates (Rep)) was 207.614 and 205.282 and 184.971 and 189.399 and the activity at 0.625 µM ([1]; M. musculus, dose 0.625 µM, Mean of replicates, read-out: Complex I activity, dose-response data) was 297%. For the same compound, the “Complex I activity, dose-response data” value ([1]; M. musculus, dose 0.625 µM, individual replicates (Rep)) was 307.614 and 305.282 and 284.971 and 289.399, the activity at 1.5 µM ([1]; M. musculus, dose 1.5 µM, Mean of replicates, read-out: Complex I activity, dose-response data) was 397% and the “Complex I activity, dose-response data” value ([1]; M. musculus, dose 1.5 µM, individual replicates (Rep)) was 407.614 and 405.282 and 384.971 and 389.399. The activity at 3 µM ([1]; M. musculus, dose 3 µM, Mean of replicates, read-out: Complex I activity, dose-response data) was 97.4%, the “Complex I activity, dose-response data” value ([1]; M. musculus, dose 3 µM, individual replicates (Rep)) was 96.485 and 88.056 and 108.623 and 96.419 and the activity at 15 µM ([1]; M. musculus, dose 15 µM, Mean of replicates, read-out: Complex I activity, dose-response data) was 81.9%. The “Complex I activity, dose-response data” value ([1]; M. musculus, dose 15 µM, individual replicates (Rep)) was 74.817 and 86.108 and 83.789, the activity at 15 µM ([1]; M. musculus, dose 15 µM, individual replicates (Rep), read-out: Complex I activity, dose-response data) was 82.8% and the activity at 37.5 µM ([1]; M. musculus, dose 37.5 µM, Mean of replicates, read-out: Complex I activity, dose-response data) was 55.4%. For the same compound, the “Complex I activity, dose-response data” value ([1]; M. musculus, dose 37.5 µM, individual replicates (Rep)) was 57.697 and 52.394 and 66.227 and 45.378, the activity at 75 µM ([1]; M. musculus, dose 75 µM, Mean of replicates, read-out: Complex I activity, dose-response data) was 50.2% and the “Complex I activity, dose-response data” value ([1]; M. musculus, dose 75 µM, individual replicates (Rep)) was 47.944 and 55.928 and 45.443. The activity at 75 µM ([1]; M. musculus, dose 75 µM, individual replicates (Rep), read-out: Complex I activity, dose-response data) was 51.4% and the IC50 [1] was 18.8 µM.

With `CC(C)Cc1ccc(C(C)c2nc3ccccc3n2C(C)C)cc1` (stereo not drawn) [STK951903] the killing at 10 µM (adult H. polygyrus; replicate 1) was 67%, the killing at 10 µM (adult H. polygyrus; replicate 2) was 83% and the “# of Worms Affected” value (adult H. polygyrus; replicate 1) was 4. For the same compound, the “# of Worms Affected” value (adult H. polygyrus; replicate 2) was 5.
